Where two headings read alike, the source gives them in different places.
Columns and labels:
[1] = cited from earlier work
[2] = Blood glucose after oral BHP or BKP (Example 1); format: in vivo, human; conditions: 10 g oral in water, 12 h fast
Method: (§1) Two (2) healthy, male subjects reported to the laboratory following a 12 hour overnight fast. Subjects were instructed to randomly consume either 10 grams of BHP or 10 grams BKP dissolved in 12 ounces of water. Subjects were then monitored for 150 minutes following drinking the mixture. Blood glucose, ketones, and visual analog scales (VAS) of well-being, energy, and focus were taken at 0, 30, 60, 90, 120, and 150 minutes. VAS scales consisted of a continuum of numbers from 1-10 with 1 being extremely low and 10 being extremely high.
(§2) Blood ketones were measured via finger prick using an Abbott Precision device which determines mMol of BHB. Blood glucose was measured using Abbott Precision glucose strips and was measured in mg/dL.

[3] = Blood ketones (BHB, Abbott Precision) after oral BHP or BKP (Example 1); format: in vivo, human; conditions: 10 g oral in water, 12 h fast
Method: as §1, §2

[4] = Visual analog scale of well-being after BHP or BKP (Example 1); format: in vivo, human; conditions: scale 1-10, 10 g oral, 12 h fast
Method: as §1

[5] = Visual analog scale of energy after BHP or BKP (Example 1); format: in vivo, human; conditions: scale 1-10, 10 g oral, 12 h fast
Method: as §1

[6] = Visual analog scale of focus after BHP or BKP (Example 1); format: in vivo, human; conditions: scale 1-10, 10 g oral, 12 h fast
Method: as §1

[7] = Borg Rating of Perceived Exertion during cycling exercise (Example 2); format: in vivo, human; conditions: 10 grams
Description: The purpose of this experiment was to see if C5 ketones could lower exertion during moderate and high intensity cycling exercise. Five (5) college aged males were given a placebo or BKP (10 grams) prior to and during 2-minute low, moderate and high intensity cycling bouts. […] Perceived exertion is how hard one feels like the body is working.

CC[C@@H](O)CC(=O)O [(R)-B-hydroxypentanoate]
Utilisation after intravenous administration ([1]; nondiabetic animals, intravenous, doses corresponding to 75% of the energy requirement (Leclerc et al 1995)): very rapidly used

CCC(=O)CC(=O)O [BKP, β-ketopentanoate]
Blood glucose levels ([2]; Combined, 0 min.): 89.5 mg/dL
Blood glucose levels ([2]; Combined, 30 min.): 87.5 mg/dL
Blood glucose levels ([2]; Combined, 60 min.): 81 mg/dL
Blood glucose levels ([2]; Combined, 90 min.): 79.5 mg/dL
Blood glucose levels ([2]; Combined, 120 min.): 87.5 mg/dL
Blood glucose levels ([2]; Combined, 150 min.): 84 mg/dL
Blood glucose levels ([2]; Subject 1, 0 min.): 88 mg/dL
Blood glucose levels ([2]; Subject 1, 30 min.): 84 mg/dL
Blood glucose levels ([2]; Subject 1, 60 min.): 79 mg/dL
Blood glucose levels ([2]; Subject 1, 90 min.): 83 mg/dL
Blood glucose levels ([2]; Subject 1, 120 min.): 85 mg/dL
Blood glucose levels ([2]; Subject 1, 150 min.): 87 mg/dL
Blood glucose levels ([2]; Subject 2, 0 min.): 91 mg/dL
Blood glucose levels ([2]; Subject 2, 30 min.): 91 mg/dL
Blood glucose levels ([2]; Subject 2, 60 min.): 83 mg/dL
Blood glucose levels ([2]; Subject 2, 90 min.): 76 mg/dL
Blood glucose levels ([2]; Subject 2, 120 min.): 90 mg/dL
Blood glucose levels ([2]; Subject 2, 150 min.): 81 mg/dL
Blood ketone levels ([3]; Combined, 0 min.): 0.1 mmol
Blood ketone levels ([3]; Combined, 30 min.): 0.1 mmol
Blood ketone levels ([3]; Combined, 60 min.): 0.2 mmol
Blood ketone levels ([3]; Combined, 90 min.): 0.1 mmol
Blood ketone levels ([3]; Combined, 120 min.): 0.1 mmol
Blood ketone levels ([3]; Combined, 150 min.): 0.1 mmol
Blood ketone levels ([3]; Subject 1, 0 min.): 0.1 mmol
Blood ketone levels ([3]; Subject 1, 30 min.): 0.1 mmol
Blood ketone levels ([3]; Subject 1, 60 min.): 0.2 mmol
Blood ketone levels ([3]; Subject 1, 90 min.): 0.1 mmol
Blood ketone levels ([3]; Subject 1, 120 min.): 0.1 mmol
Blood ketone levels ([3]; Subject 1, 150 min.): 0.1 mmol
Blood ketone levels ([3]; Subject 2, 0 min.): 0.1 mmol
Blood ketone levels ([3]; Subject 2, 30 min.): 0.1 mmol
Blood ketone levels ([3]; Subject 2, 60 min.): 0.2 mmol
Blood ketone levels ([3]; Subject 2, 90 min.): 0.1 mmol
Blood ketone levels ([3]; Subject 2, 120 min.): 0.1 mmol
Blood ketone levels ([3]; Subject 2, 150 min.): 0.1 mmol
VAS of Well-Being ([4]; Combined, 0 min.): 6.5
VAS of Well-Being ([4]; Combined, 30 min.): 6.5
VAS of Well-Being ([4]; Combined, 60 min.): 7.5
VAS of Well-Being ([4]; Combined, 90 min.): 7.5
VAS of Well-Being ([4]; Combined, 120 min.): 8
VAS of Well-Being ([4]; Combined, 150 min.): 8
VAS of Well-Being ([4]; Subject 1, 0 min.): 7
VAS of Well-Being ([4]; Subject 1, 30 min.): 7
VAS of Well-Being ([4]; Subject 1, 60 min.): 9
VAS of Well-Being ([4]; Subject 1, 90 min.): 9
VAS of Well-Being ([4]; Subject 1, 120 min.): 9
VAS of Well-Being ([4]; Subject 1, 150 min.): 9
VAS of Well-Being ([4]; Subject 2, 0 min.): 6
VAS of Well-Being ([4]; Subject 2, 30 min.): 6
VAS of Well-Being ([4]; Subject 2, 60 min.): 6
VAS of Well-Being ([4]; Subject 2, 90 min.): 6
VAS of Well-Being ([4]; Subject 2, 120 min.): 7
VAS of Well-Being ([4]; Subject 2, 150 min.): 7
VAS of Energy ([5]; Combined, 0 min.): 6
VAS of Energy ([5]; Combined, 30 min.): 6.5
VAS of Energy ([5]; Combined, 60 min.): 7
VAS of Energy ([5]; Combined, 90 min.): 7
VAS of Energy ([5]; Combined, 120 min.): 7.5
VAS of Energy ([5]; Combined, 150 min.): 8
VAS of Energy ([5]; Subject 1, 0 min.): 7
VAS of Energy ([5]; Subject 1, 30 min.): 7
VAS of Energy ([5]; Subject 1, 60 min.): 7
VAS of Energy ([5]; Subject 1, 90 min.): 8
VAS of Energy ([5]; Subject 1, 120 min.): 8
VAS of Energy ([5]; Subject 1, 150 min.): 9
VAS of Energy ([5]; Subject 2, 0 min.): 5
VAS of Energy ([5]; Subject 2, 30 min.): 6
VAS of Energy ([5]; Subject 2, 60 min.): 7
VAS of Energy ([5]; Subject 2, 90 min.): 6
VAS of Energy ([5]; Subject 2, 120 min.): 7
VAS of Energy ([5]; Subject 2, 150 min.): 7
VAS of Focus ([6]; Combined, 0 min.): 5.5
VAS of Focus ([6]; Combined, 30 min.): 5.5
VAS of Focus ([6]; Combined, 60 min.): 6
VAS of Focus ([6]; Combined, 90 min.): 6.5
VAS of Focus ([6]; Combined, 120 min.): 7
VAS of Focus ([6]; Combined, 150 min.): 7
VAS of Focus ([6]; Subject 1, 0 min.): 6
VAS of Focus ([6]; Subject 1, 30 min.): 5
VAS of Focus ([6]; Subject 1, 60 min.): 7
VAS of Focus ([6]; Subject 1, 90 min.): 7
VAS of Focus ([6]; Subject 1, 120 min.): 7
VAS of Focus ([6]; Subject 1, 150 min.): 8
VAS of Focus ([6]; Subject 2, 0 min.): 5
VAS of Focus ([6]; Subject 2, 30 min.): 6
VAS of Focus ([6]; Subject 2, 60 min.): 5
VAS of Focus ([6]; Subject 2, 90 min.): 6
VAS of Focus ([6]; Subject 2, 120 min.): 7
VAS of Focus ([6]; Subject 2, 150 min.): 6
Rating of Perceived Exertion (RPE) High Intensity ([7]; college aged males, 2-minute cycling bout, High Intensity): 17 ± 2
Rating of Perceived Exertion (RPE) Low Intensity ([7]; college aged males, 2-minute cycling bout, Low Intensity): 9 ± 1
Rating of Perceived Exertion (RPE) Moderate Intensity ([7]; college aged males, 2-minute cycling bout, Moderate Intensity): 13 ± 2
Rating of Perceived Exertion (RPE) 30 min.-Post ([7]; college aged males, cycling, 30 min.-Post): 8 ± 1
Rating of Perceived Exertion (RPE) Baseline ([7]; college aged males, cycling, Baseline): 7 ± 1
Perceived exertion compared to a placebo ([7]; moderate and high intensity cycling): lower perceived exertion at both moderate and high intensity exercise
Utilisation after intravenous administration ([1]; in vivo, iv): very rapidly used
Metabolism and tolerance in animals ([1]; in vivo): well metabolized in animals without apparent intolerance
